Laboratory results taken from patent US20250101023A1, “HETEROARYL DERIVATIVE AND USES THEREOF” (IUCF-HYU (INDUSTRY-UNIVERSITY COOPERATION FOUNDATION …, priority 2022, published 2025).

What was measured:
[1] = molecular target: CYP2C19 (Homo sapiens (Human), UniProt P33261); assay: CYP inhibitory activity; format: in vitro ADME; details: read-out: CYP % activity at 10 μM concentration 2C19
Procedure: (§1) 5 derivatives were evaluated for in vitro metabolic stability in liver microsomes from three different species (human, dog, mouse) and for inhibitory activity against 5 representative cytochrome P450 enzymes (CYPs)(Table 3). In terms of liver microsomal stability, the 2′-pyridyl group is more suitable than the α-methyl-4′-pyridyl group as the terminal aromatic group at position 6, and the aminopyrimidyl group is better than the aminopyridyl group as a substituent at position 2.

[2] = molecular target: CYP2C9 (Homo sapiens (Human), UniProt P11712); assay: CYP inhibitory activity; format: in vitro ADME; details: read-out: CYP % activity at 10 μM concentration 2C9
Procedure: as §1

[3] = molecular target: CYP2D6 (Homo sapiens (Human), UniProt P10635); assay: CYP inhibitory activity; format: in vitro ADME; details: read-out: CYP % activity at 10 μM concentration 2D6
CYP2D6, sequence (P10635 whole entry): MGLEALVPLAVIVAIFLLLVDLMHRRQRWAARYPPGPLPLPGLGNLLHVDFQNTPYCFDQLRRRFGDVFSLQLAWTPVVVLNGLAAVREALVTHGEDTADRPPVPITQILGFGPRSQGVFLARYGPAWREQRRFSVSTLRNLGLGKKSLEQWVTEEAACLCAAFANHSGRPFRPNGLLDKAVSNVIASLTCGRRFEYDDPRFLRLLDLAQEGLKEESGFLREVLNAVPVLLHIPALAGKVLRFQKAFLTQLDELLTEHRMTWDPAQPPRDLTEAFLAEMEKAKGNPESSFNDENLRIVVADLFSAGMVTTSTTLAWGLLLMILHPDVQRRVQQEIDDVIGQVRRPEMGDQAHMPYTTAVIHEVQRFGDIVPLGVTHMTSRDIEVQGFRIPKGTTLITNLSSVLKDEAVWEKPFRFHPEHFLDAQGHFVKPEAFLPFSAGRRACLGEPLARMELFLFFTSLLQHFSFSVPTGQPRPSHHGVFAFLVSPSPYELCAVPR
Procedure: as §1

[4] = molecular target: CYP3A4 (Homo sapiens (Human), UniProt P08684); assay: CYP inhibitory activity; format: in vitro ADME; details: read-out: CYP % activity at 10 μM concentration 3A4
CYP3A4, sequence (P08684 whole entry): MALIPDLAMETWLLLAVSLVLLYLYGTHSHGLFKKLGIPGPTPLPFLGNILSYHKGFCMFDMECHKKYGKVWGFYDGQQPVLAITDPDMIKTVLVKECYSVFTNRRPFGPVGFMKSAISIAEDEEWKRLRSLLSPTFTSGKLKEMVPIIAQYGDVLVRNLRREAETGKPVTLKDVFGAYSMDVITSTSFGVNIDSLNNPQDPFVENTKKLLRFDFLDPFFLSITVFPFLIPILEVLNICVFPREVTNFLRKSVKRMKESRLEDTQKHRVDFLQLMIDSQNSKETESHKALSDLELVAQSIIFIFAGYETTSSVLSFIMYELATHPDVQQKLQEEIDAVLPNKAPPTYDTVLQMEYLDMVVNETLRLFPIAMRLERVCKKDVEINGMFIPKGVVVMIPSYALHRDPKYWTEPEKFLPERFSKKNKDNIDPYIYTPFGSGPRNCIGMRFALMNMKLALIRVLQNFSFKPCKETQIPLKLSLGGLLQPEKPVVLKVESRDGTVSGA
Procedure: as §1

[5] = molecular target: LKB1 (Homo sapiens (Human), UniProt Q15831); assay: Kinome-wide profiling; format: biochemical; details: read-out: % Residual Activity (mean)
[6] = molecular target: CDK5/p35 (Homo sapiens (Human), UniProt Q00535); assay: Kinome-wide profiling; format: biochemical; details: read-out: % Residual Activity (mean)
[7] = molecular target: CDK9/cyclin T2 (Homo sapiens (Human), UniProt P50750); assay: Kinome-wide profiling; format: biochemical; details: read-out: % Residual Activity (mean)
[8] = molecular target: CDK6/cyclin D3 (Homo sapiens (Human), UniProt Q00534); assay: Kinome-wide profiling; format: biochemical; details: read-out: % Residual Activity (mean)
[9] = molecular target: CDK6/cyclin D1 (Homo sapiens (Human), UniProt Q00534); assay: Kinome-wide profiling; format: biochemical; details: read-out: % Residual Activity (mean)
[10] = molecular target: CK1g3 (Homo sapiens (Human), UniProt Q9Y6M4); assay: Kinome-wide profiling; format: biochemical; details: read-out: % Residual Activity (mean)
[11] = molecular target: NLK (Homo sapiens (Human), UniProt Q9UBE8); assay: Kinome-wide profiling; format: biochemical; details: read-out: % Residual Activity (mean)
[12] = molecular target: EPHA7 (Homo sapiens (Human), UniProt Q15375); assay: Kinome-wide profiling; format: biochemical; details: read-out: % Residual Activity (mean)
[13] = molecular target: SIK2 (Homo sapiens (Human), UniProt Q9H0K1); assay: Kinome-wide profiling; format: biochemical; details: read-out: % Residual Activity (mean)
[14] = molecular target: PDGFRa (Homo sapiens (Human), UniProt P16234); assay: Kinome-wide profiling; format: biochemical; details: read-out: % Residual Activity (mean)
[15] = molecular target: MST2/STK3 (Homo sapiens (Human), UniProt Q13188); assay: Kinome-wide profiling; format: biochemical; details: read-out: % Residual Activity (mean)
[16] = molecular target: IGF1R (Homo sapiens (Human), UniProt P08069); assay: Kinome-wide profiling; format: biochemical; details: read-out: % Residual Activity (mean)
[17] = molecular target: GCK/MAP4K2 (Homo sapiens (Human), UniProt Q12851); assay: Kinome-wide profiling; format: biochemical; details: read-out: % Residual Activity (mean)
GCK/MAP4K2, sequence (Q12851 whole entry): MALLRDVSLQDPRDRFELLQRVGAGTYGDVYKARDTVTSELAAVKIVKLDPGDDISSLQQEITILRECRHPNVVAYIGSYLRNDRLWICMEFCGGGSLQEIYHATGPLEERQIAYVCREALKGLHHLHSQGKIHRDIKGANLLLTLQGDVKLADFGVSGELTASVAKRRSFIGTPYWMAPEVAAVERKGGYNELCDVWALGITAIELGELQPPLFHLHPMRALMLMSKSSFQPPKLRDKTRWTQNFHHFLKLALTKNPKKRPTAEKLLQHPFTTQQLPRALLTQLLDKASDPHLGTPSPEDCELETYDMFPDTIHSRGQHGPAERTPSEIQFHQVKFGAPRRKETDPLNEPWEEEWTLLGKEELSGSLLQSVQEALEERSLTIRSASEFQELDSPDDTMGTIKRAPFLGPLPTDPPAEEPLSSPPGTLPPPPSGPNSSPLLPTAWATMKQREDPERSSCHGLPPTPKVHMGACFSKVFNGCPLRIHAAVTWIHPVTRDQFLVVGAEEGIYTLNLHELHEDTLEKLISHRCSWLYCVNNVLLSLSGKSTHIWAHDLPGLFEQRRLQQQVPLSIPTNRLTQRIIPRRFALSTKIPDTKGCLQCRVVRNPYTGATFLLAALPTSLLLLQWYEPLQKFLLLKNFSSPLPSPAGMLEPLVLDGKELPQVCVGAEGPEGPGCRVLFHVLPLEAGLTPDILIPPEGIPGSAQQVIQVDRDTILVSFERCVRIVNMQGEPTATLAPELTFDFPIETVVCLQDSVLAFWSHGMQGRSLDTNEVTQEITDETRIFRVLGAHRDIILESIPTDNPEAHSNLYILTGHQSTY

[18] = molecular target: MLCK/MYLK (Homo sapiens (Human), UniProt Q15746); assay: Kinome-wide profiling; format: biochemical; details: read-out: % Residual Activity (mean)
[19] = molecular target: P38b/MAPK11 (Homo sapiens (Human), UniProt Q15759); assay: Kinome-wide profiling; format: biochemical; details: read-out: % Residual Activity (mean)
P38b/MAPK11, sequence (Q15759 whole entry): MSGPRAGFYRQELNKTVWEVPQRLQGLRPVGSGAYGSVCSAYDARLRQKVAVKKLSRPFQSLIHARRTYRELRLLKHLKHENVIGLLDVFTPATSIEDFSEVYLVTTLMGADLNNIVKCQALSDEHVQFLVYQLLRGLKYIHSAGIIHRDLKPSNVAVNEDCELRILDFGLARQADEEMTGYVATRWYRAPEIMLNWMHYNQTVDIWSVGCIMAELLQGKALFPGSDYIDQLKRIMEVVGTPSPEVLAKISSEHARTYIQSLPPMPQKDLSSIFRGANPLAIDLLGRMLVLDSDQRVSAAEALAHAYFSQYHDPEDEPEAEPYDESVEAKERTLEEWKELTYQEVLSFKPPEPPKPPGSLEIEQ

[20] = molecular target: RSK2 (Homo sapiens (Human), UniProt P51812); assay: Kinome-wide profiling; format: biochemical; details: read-out: % Residual Activity (mean)
[21] = molecular target: TLK2 (Homo sapiens (Human), UniProt Q86UE8); assay: Kinome-wide profiling; format: biochemical; details: read-out: % Residual Activity (mean)
[22] = molecular target: DCAMKL1 (Homo sapiens (Human), UniProt O15075); assay: Kinome-wide profiling; format: biochemical; details: read-out: % Residual Activity (mean)
[23] = molecular target: ARAF (Homo sapiens (Human), UniProt P10398); assay: Kinome-wide profiling; format: biochemical; details: read-out: % Residual Activity (mean)
ARAF, sequence (P10398 whole entry): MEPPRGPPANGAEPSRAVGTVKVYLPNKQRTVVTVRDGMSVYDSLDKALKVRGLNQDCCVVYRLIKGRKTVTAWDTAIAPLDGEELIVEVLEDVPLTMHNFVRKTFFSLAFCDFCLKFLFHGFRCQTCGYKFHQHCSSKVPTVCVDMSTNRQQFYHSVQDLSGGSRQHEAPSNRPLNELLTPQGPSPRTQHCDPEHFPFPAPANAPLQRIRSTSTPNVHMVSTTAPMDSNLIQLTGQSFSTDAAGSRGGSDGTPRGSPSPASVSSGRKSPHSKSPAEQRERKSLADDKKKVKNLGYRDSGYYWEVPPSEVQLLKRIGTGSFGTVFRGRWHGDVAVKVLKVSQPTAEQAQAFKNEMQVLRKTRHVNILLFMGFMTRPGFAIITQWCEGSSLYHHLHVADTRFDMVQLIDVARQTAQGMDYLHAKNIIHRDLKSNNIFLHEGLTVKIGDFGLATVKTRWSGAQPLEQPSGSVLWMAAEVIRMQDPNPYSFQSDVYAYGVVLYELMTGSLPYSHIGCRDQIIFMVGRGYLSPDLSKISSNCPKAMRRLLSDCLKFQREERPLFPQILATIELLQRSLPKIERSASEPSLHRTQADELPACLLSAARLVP

[24] = molecular target: MSK1/RPS6KA5 (Homo sapiens (Human), UniProt O75582); assay: Kinome-wide profiling; format: biochemical; details: read-out: % Residual Activity (mean)
[25] = molecular target: SGK2 (Homo sapiens (Human), UniProt Q9HBY8); assay: Kinome-wide profiling; format: biochemical; details: read-out: % Residual Activity (mean)
[26] = molecular target: SGK1 (Homo sapiens (Human), UniProt O00141); assay: Kinome-wide profiling; format: biochemical; details: read-out: % Residual Activity (mean)
SGK1, sequence (O00141 whole entry): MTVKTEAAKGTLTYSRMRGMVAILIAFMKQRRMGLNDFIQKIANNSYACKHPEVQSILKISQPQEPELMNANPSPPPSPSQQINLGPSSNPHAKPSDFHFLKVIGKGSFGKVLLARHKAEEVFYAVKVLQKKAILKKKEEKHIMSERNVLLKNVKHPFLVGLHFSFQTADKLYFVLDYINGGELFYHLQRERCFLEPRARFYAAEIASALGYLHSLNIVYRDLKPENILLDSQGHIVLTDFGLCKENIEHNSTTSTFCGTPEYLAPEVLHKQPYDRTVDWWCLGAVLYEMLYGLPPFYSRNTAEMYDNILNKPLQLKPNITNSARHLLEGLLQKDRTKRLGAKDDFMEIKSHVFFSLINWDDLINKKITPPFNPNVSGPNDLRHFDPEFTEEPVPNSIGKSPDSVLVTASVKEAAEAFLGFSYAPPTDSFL

[27] = molecular target: PKN2/PRK2 (Homo sapiens (Human), UniProt Q16513); assay: Kinome-wide profiling; format: biochemical; details: read-out: % Residual Activity (mean)
[28] = molecular target: DYRK4 (Homo sapiens (Human), UniProt Q9NR20); assay: Kinome-wide profiling; format: biochemical; details: read-out: % Residual Activity (mean)
DYRK4, sequence (Q9NR20 whole entry): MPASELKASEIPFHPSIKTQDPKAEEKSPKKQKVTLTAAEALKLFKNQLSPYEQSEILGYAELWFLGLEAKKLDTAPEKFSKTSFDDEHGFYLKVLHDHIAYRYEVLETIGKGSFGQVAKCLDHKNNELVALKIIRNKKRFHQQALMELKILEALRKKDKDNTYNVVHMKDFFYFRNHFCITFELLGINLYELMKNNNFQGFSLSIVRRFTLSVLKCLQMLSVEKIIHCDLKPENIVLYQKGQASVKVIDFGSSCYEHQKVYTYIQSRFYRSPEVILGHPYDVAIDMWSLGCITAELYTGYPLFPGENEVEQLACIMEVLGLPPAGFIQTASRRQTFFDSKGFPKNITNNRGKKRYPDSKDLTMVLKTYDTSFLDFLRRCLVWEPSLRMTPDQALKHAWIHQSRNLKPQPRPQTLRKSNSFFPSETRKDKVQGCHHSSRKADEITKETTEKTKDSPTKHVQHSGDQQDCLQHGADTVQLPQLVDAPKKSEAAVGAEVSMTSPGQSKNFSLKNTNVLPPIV

[29] = molecular target: GRK5 (Homo sapiens (Human), UniProt P34947); assay: Kinome-wide profiling; format: biochemical; details: read-out: % Residual Activity (mean)
[30] = molecular target: JAK1 (Homo sapiens (Human), UniProt P23458); assay: Kinome-wide profiling; format: biochemical; details: read-out: % Residual Activity (mean)
[31] = molecular target: SNRK (Homo sapiens (Human), UniProt Q9NRH2); assay: Kinome-wide profiling; format: biochemical; details: read-out: % Residual Activity (mean)
[32] = molecular target: EPHA8 (Homo sapiens (Human), UniProt P29322); assay: Kinome-wide profiling; format: biochemical; details: read-out: % Residual Activity (mean)
[33] = molecular target: PKCepsilon (Homo sapiens (Human), UniProt Q02156); assay: Kinome-wide profiling; format: biochemical; details: read-out: % Residual Activity (mean)
[34] = molecular target: MAPKAPK5/PRAK (Homo sapiens (Human), UniProt Q8IW41); assay: Kinome-wide profiling; format: biochemical; details: read-out: % Residual Activity (mean)
MAPKAPK5/PRAK, sequence (Q8IW41 whole entry): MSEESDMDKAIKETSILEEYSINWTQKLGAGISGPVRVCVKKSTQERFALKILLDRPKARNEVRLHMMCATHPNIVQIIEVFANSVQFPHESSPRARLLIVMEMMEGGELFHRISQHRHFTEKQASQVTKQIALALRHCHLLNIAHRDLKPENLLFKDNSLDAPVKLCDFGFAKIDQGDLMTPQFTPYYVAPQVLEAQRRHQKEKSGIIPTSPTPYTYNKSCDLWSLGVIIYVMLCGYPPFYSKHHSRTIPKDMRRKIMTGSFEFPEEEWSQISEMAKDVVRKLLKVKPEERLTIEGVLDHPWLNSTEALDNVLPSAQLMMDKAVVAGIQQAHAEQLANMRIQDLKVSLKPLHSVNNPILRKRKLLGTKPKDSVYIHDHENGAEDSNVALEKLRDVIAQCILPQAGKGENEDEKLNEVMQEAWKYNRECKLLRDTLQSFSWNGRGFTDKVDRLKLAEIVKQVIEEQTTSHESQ

CYP2C19, sequence (P33261 whole entry): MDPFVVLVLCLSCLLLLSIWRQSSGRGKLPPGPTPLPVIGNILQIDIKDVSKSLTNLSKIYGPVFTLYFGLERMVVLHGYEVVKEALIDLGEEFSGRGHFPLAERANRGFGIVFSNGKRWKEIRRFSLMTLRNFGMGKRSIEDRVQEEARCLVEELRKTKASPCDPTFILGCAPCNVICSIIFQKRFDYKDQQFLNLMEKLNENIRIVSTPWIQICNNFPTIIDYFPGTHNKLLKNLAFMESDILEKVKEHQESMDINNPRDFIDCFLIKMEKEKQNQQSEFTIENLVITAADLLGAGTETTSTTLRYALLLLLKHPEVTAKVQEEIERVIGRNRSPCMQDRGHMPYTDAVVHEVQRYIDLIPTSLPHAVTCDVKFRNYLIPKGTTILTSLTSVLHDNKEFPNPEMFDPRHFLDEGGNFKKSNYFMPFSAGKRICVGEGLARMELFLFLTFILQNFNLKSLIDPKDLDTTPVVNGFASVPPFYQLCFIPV

For `CCn1cnc2c(NCc3ccc(-c4ccccn4)nc3)nc(-c3ccc(N)nc3)nc21` [Example 53, N-([2,2′-bipyridin]-5-ylmethyl)-2-(6-aminopyridin-3-yl)-9-ethyl-9H-purin-6-amine], the activity at 10 µM [1] was 68.1%, the activity at 10 µM [2] was 57.9% and the activity at 10 µM [3] was 81%. The activity at 10 µM [4] was 43%, the remaining activity at 10 µM [5] was 0% and the remaining activity at 10 µM [6] was 0.67%. It also gave a remaining activity at 10 µM [7] of 1.95%, a remaining activity at 10 µM [8] of 12.9% and a remaining activity at 10 µM [9] of 24.2%. The remaining activity at 10 µM [10] was 24.4%, the remaining activity at 10 µM [11] was 24.8% and the remaining activity at 10 µM [12] was 31.3%. For the same molecule, the remaining activity at 10 µM [13] was 35.9%, the remaining activity at 10 µM [14] was 52.8% and the remaining activity at 10 µM [15] was 53.5%. The remaining activity at 10 µM [16] was 58%, the remaining activity at 10 µM [17] was 58.4% and the remaining activity at 10 µM [18] was 63.4%. The remaining activity at 10 µM [19] was 64.7%, the remaining activity at 10 µM [20] was 69.4% and the remaining activity at 10 µM [21] was 72.2%. For the same molecule, the remaining activity at 10 µM [22] was 72.6%, the remaining activity at 10 µM [23] was 79.5% and the remaining activity at 10 µM [24] was 80.5%. For the same molecule, the remaining activity at 10 µM [25] was 84.7%, the remaining activity at 10 µM [26] was 84.9% and the remaining activity at 10 µM [27] was 85.8%. For the same molecule, the remaining activity at 10 µM [28] was 89.3%, the remaining activity at 10 µM [29] was 91.5% and the remaining activity at 10 µM [30] was 92.1%. The remaining activity at 10 µM [31] was 93%, the remaining activity at 10 µM [32] was 94% and the remaining activity at 10 µM [33] was 94.1%. It also gave a remaining activity at 10 µM [34] of 103%.
